For orientation: EC50 means the concentration giving half of the maximal effect.

Numbered stars: 1 amine (or outer) side, 2 acyl side, 3 side chain; on linkers, the order of the positions; unused ones are H or OH. Square brackets hold non-standard residues; d marks the D form. Side chains are listed from the residue outwards. Peptide text beside a SMILES is read from it. * marks the point of attachment. C20 diacid = O=C(O)CCCCCCCCCCCCCCCCCCC(=O)*; C18 diacid = O=C(O)CCCCCCCCCCCCCCCCC(=O)*; αMePhe(2-F) = C[C@](N)(Cc1ccccc1F)C(=O)O; C16 diacid = O=C(O)CCCCCCCCCCCCCCC(=O)*; γGlu = O=C(O)[C@H](CCC(=O)[*:2])N[*:1]; αMeF = C[C@](N)(Cc1ccccc1)C(=O)O; αMeL = CC(C)C[C@](C)(N)C(=O)O; αMeP = C[C@@]1(C(=O)O)CCCN1; Orn = NCCC[C@H](N)C(=O)O; AEEA = NCCOCCOCC(=O)O; Aib = CC(C)(N)C(=O)O

This is an account of results in patent US12252524B2, “GIP/GLP1 co-agonist compounds” (Eli Lilly and Company, priority 2018, dated 2025).

Experiment [1] deals with T1, gastric inhibitory peptide receptor (GIPR) (Homo sapiens, UniProt P48546).
T1 sequence (P48546 22-466): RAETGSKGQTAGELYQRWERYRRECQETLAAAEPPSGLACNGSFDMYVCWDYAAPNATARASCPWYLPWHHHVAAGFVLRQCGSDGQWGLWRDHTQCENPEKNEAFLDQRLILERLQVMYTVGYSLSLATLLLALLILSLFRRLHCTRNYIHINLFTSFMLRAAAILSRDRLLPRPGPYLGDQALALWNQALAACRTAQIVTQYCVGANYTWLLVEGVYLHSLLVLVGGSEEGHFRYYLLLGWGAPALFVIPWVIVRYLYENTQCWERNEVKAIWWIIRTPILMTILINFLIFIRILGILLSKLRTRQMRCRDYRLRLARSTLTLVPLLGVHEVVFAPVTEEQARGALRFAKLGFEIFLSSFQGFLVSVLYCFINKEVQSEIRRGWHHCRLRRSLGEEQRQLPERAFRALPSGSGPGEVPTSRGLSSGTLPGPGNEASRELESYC
Description: cAMP pharmacological functional assay in presence of casein, hGIPR. The following applies: HEK293 cells expressing hGIPR, 0.1% Casein, geometric mean; read-out: hGIPR cAMP Rel EC50 nM (SEM, n). The experiment is classed as cell-based.

Experiment [2] deals with human GLP-1 receptor (GLP-1R) (Homo sapiens, UniProt P43220). Description: cAMP pharmacological functional assay in presence of casein, hGLP-1R. The experiment is classed as cell-based. The following applies: HEK293 cells expressing hGLP-1R, 0.1% Casein, geometric mean; read-out: hGLP1R cAMP Rel EC50 nM (SEM, n).
Chain of human GLP-1 receptor (GLP-1R) (P43220 24-463): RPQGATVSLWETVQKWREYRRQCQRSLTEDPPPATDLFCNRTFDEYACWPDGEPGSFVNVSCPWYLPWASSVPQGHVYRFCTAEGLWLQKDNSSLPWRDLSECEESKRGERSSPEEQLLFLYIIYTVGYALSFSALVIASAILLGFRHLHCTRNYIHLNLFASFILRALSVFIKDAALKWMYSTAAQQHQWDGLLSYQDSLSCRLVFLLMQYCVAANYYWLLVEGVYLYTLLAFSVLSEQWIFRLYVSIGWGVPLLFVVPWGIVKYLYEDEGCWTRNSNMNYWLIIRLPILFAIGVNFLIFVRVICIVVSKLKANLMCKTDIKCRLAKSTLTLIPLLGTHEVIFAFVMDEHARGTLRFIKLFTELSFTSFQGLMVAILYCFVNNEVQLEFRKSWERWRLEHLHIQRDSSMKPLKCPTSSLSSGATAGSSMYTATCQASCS

With `CC[C@H](C)[C@H](NC(=O)[C@H](Cc1ccccc1)NC(=O)[C@H](CCC(=O)O)NC(=O)C(C)(C)NC(=O)[C@H](CCC(N)=O)NC(=O)[C@H](C)NC(=O)[C@H](CCCCNC(=O)COCCOCCNC(=O)COCCOCCNC(=O)CC[C@H](NC(=O)CCCCCCCCCCCCCCCCCCC(=O)O)C(=O)O)NC(=O)[C@H](CCC(=O)O)NC(=O)[C@H](CC(=O)O)NC(=O)[C@H](CC(C)C)NC(=O)[C@](C)(CC(C)C)NC(=O)[C@@H](NC(=O)[C@H](CO)NC(=O)[C@H](Cc1ccc(O)cc1)NC(=O)[C@H](CC(=O)O)NC(=O)[C@H](CO)NC(=O)[C@@H](NC(=O)[C@](C)(Cc1ccccc1F)NC(=O)[C@@H](NC(=O)CNC(=O)[C@H](CCC(=O)O)NC(=O)C(C)(C)NC(=O)[C@@H](N)Cc1ccc(O)cc1)[C@@H](C)O)[C@@H](C)O)[C@@H](C)CC)C(=O)N[C@@H](C)C(=O)N[C@@H](Cc1ccc(O)cc1)C(=O)N[C@@H](CC(C)C)C(=O)N[C@H](C(=O)N[C@@H](CCC(=O)O)C(=O)NCC(=O)NCC(=O)N1CCC[C@H]1C(=O)N[C@@H](CO)C(=O)N[C@@H](CO)C(=O)NCC(=O)N[C@@H](C)C(=O)N1CCC[C@H]1C(=O)N1CCC[C@H]1C(=O)N1CCC[C@H]1C(=O)N[C@@H](CO)C(N)=O)[C@@H](C)CC` [Example 148] (H-Y[Aib]EGT[αMePhe(2-F)]TSDYSI[αMeL]LDEK([AEEA-AEEA-γGlu-C20 diacid])AQ[Aib]EFIAYLIEGGPSSGAPPPS-NH2), the values for the EC50 in experiment [1] and in experiment [2] were 0.043 nM and 0.0626 nM, respectively.
The corresponding values for `CC[C@H](C)[C@H](NC(=O)[C@H](CCCCN)NC(=O)[C@H](CC(=O)O)NC(=O)[C@H](CC(C)C)NC(=O)[C@H](CC(C)C)NC(=O)[C@@H](NC(=O)[C@H](CO)NC(=O)[C@H](CCCCNC(=O)COCCOCCNC(=O)COCCOCCNC(=O)CC[C@H](NC(=O)CCCCCCCCCCCCCCCCCCC(=O)O)C(=O)O)NC(=O)[C@H](CC(=O)O)NC(=O)[C@H](CO)NC(=O)[C@@H](NC(=O)[C@](C)(Cc1ccccc1)NC(=O)[C@@H](NC(=O)CNC(=O)[C@H](CCC(=O)O)NC(=O)C(C)(C)NC(=O)[C@@H](N)Cc1ccc(O)cc1)[C@@H](C)O)[C@@H](C)O)[C@@H](C)CC)C(=O)N[C@@H](C)C(=O)N[C@@H](CCC(N)=O)C(=O)NC(C)(C)C(=O)N[C@@H](C)C(=O)N[C@@H](Cc1ccccc1)C(=O)N[C@H](C(=O)N[C@@H](CCC(=O)O)C(=O)N[C@@H](Cc1ccc(O)cc1)C(=O)N[C@@H](CC(C)C)C(=O)N[C@H](C(=O)N[C@@H](CCC(=O)O)C(=O)NCC(=O)NCC(N)=O)[C@@H](C)CC)[C@@H](C)CC` [Example 92] (H-Y[Aib]EGT[αMeF]TSDK([AEEA-AEEA-γGlu-C20 diacid])SILLDKIAQ[Aib]AFIEYLIEGG-NH2) are 0.338 nM and 0.257 nM.
As to `CC[C@H](C)[C@H](NC(=O)[C@H](CC(C)C)NC(=O)[C@H](Cc1ccc(O)cc1)NC(=O)[C@@H](CCC(=O)O)NC(=O)[C@@H](NC(=O)[C@H](Cc1ccccc1)NC(=O)[C@@H](NC(=O)C(C)(C)NC(=O)[C@H](CCC(N)=O)NC(=O)[C@H](C)NC(=O)[C@H](CCCCNC(=O)COCCOCCNC(=O)COCCOCCNC(=O)CC[C@H](NC(=O)CCCCCCCCCCCCCCC(=O)O)C(=O)O)NC(=O)[C@H](CCC(=O)O)NC(=O)[C@H](CC(=O)O)NC(=O)[C@H](CC(C)C)NC(=O)[C@](C)(CC(C)C)NC(=O)[C@@H](NC(=O)[C@H](CO)NC(=O)[C@H](Cc1c[nH]cn1)NC(=O)[C@H](CC(=O)O)NC(=O)[C@H](CO)NC(=O)[C@@H](NC(=O)[C@](C)(Cc1ccccc1F)NC(=O)[C@@H](NC(=O)CNC(=O)[C@H](CCC(=O)O)NC(=O)C(C)(C)NC(=O)[C@@H](N)Cc1ccc(O)cc1)[C@@H](C)O)[C@@H](C)O)[C@@H](C)CC)[C@@H](C)O)[C@@H](C)CC)C(=O)N[C@@H](CCC(=O)O)C(=O)NCC(=O)NCC(=O)N1CCC[C@H]1C(=O)N[C@@H](CO)C(=O)N[C@@H](CO)C(=O)NCC(=O)N[C@@H](C)C(=O)N1CCC[C@H]1C(=O)N1CCC[C@H]1C(=O)N1CCC[C@H]1C(=O)N[C@@H](CO)C(N)=O` [Example 170] (H-Y[Aib]EGT[αMePhe(2-F)]TSDHSI[αMeL]LDEK([AEEA-AEEA-γGlu-C16 diacid])AQ[Aib]TFI[dE]YLIEGGPSSGAPPPS-NH2), the EC50 in experiment [1] was found to be 0.569 nM; in experiment [2], 10.4 nM.
For the compound `CC[C@H](C)[C@H](NC(=O)[C@H](CC(C)C)NC(=O)[C@H](Cc1ccc(O)cc1)NC(=O)[C@@H](CCC(=O)O)NC(=O)[C@@H](NC(=O)[C@H](Cc1ccccc1)NC(=O)[C@H](CCC(=O)O)NC(=O)C(C)(C)NC(=O)[C@H](CCC(N)=O)NC(=O)[C@H](C)NC(=O)[C@H](CCC(N)=O)NC(=O)[C@H](CCCN)NC(=O)[C@H](CC(=O)O)NC(=O)[C@H](CC(C)C)NC(=O)[C@](C)(CC(C)C)NC(=O)[C@@H](NC(=O)[C@H](CO)NC(=O)[C@H](Cc1ccc(O)cc1)NC(=O)[C@H](CC(=O)O)NC(=O)[C@H](CO)NC(=O)[C@@H](NC(=O)[C@](C)(Cc1ccccc1F)NC(=O)[C@@H](NC(=O)CNC(=O)[C@H](CCC(=O)O)NC(=O)C(C)(C)NC(=O)[C@@H](N)Cc1ccc(O)cc1)[C@@H](C)O)[C@@H](C)O)[C@@H](C)CC)[C@@H](C)CC)C(=O)N[C@@H](CCC(=O)O)C(=O)NCC(=O)NCC(=O)N1CCC[C@H]1C(=O)N[C@@H](CO)C(=O)N[C@@H](CO)C(=O)NCC(=O)N[C@@H](C)C(=O)N1CCC[C@H]1C(=O)N1CCC[C@H]1C(=O)N1CCC[C@H]1C(=O)N[C@@H](CO)C(N)=O` [Example 281] (H-Y[Aib]EGT[αMePhe(2-F)]TSDYSI[αMeL]LD[Orn]QAQ[Aib]EFI[dE]YLIEGGPSSGAPPPS-NH2), the concentration giving a half-maximal response (EC50) in experiment [1] was found to be 0.166 nM; in experiment [2], 0.16 nM.
As to `CC[C@H](C)[C@H](NC(=O)[C@H](CC(C)C)NC(=O)[C@H](Cc1ccc(O)cc1)NC(=O)[C@H](CCC(=O)O)NC(=O)[C@@H](NC(=O)[C@H](Cc1ccccc1)NC(=O)[C@H](C)NC(=O)[C@@H]1CCCN1C(=O)[C@H](CCC(N)=O)NC(=O)[C@H](C)NC(=O)[C@H](CCCCNC(=O)COCCOCCNC(=O)COCCOCCNC(=O)CC[C@H](NC(=O)CCCCCCCCCCCCCCCCC(=O)O)C(=O)O)NC(=O)[C@H](CCCCN)NC(=O)[C@H](CC(=O)O)NC(=O)[C@H](CC(C)C)NC(=O)[C@H](CC(C)C)NC(=O)[C@@H](NC(=O)[C@H](CO)NC(=O)[C@H](Cc1ccc(O)cc1)NC(=O)[C@H](CC(=O)O)NC(=O)[C@H](CO)NC(=O)[C@@H](NC(=O)[C@H](Cc1ccccc1)NC(=O)[C@@H](NC(=O)CNC(=O)[C@H](CCC(=O)O)NC(=O)C(C)(C)NC(=O)[C@@H](N)Cc1ccc(O)cc1)[C@@H](C)O)[C@@H](C)O)[C@@H](C)CC)[C@@H](C)CC)C(=O)N[C@@H](CCC(=O)O)C(=O)NCC(=O)NCC(=O)N1CCC[C@H]1C(=O)N[C@@H](CO)C(=O)N[C@@H](CO)C(=O)NCC(N)=O` [Example 274] (H-Y[Aib]EGTFTSDYSILLDKK([AEEA-AEEA-γGlu-C18 diacid])AQPAFIEYLIEGGPSSG-NH2), the half-maximal effective concentration (EC50) in experiment [1] is > 30 nM; in experiment [2], 14.5 nM.
Consider `CC[C@H](C)[C@H](NC(=O)[C@H](CC(C)C)NC(=O)[C@H](Cc1ccc(O)cc1)NC(=O)[C@H](CCC(=O)O)NC(=O)[C@@H](NC(=O)[C@H](Cc1ccccc1)NC(=O)[C@H](C)NC(=O)[C@H](CCC(N)=O)NC(=O)[C@H](CCC(N)=O)NC(=O)[C@H](C)NC(=O)[C@H](CCCCNC(=O)COCCOCCNC(=O)COCCOCCNC(=O)CC[C@H](NC(=O)CCCCCCCCCCCCCCCCCCC(=O)O)C(=O)O)NC(=O)[C@H](CCC(=O)O)NC(=O)[C@H](CC(=O)O)NC(=O)[C@H](CC(C)C)NC(=O)[C@H](CC(C)C)NC(=O)[C@@H](NC(=O)[C@H](CO)NC(=O)[C@H](Cc1ccc(O)cc1)NC(=O)[C@H](CC(=O)O)NC(=O)[C@H](CO)NC(=O)[C@@H](NC(=O)[C@H](Cc1ccccc1)NC(=O)[C@@H](NC(=O)CNC(=O)[C@H](CCC(=O)O)NC(=O)[C@]1(C)CCCN1C(=O)[C@@H](N)Cc1ccc(O)cc1)[C@@H](C)O)[C@@H](C)O)[C@@H](C)CC)[C@@H](C)CC)C(=O)N[C@@H](CCC(=O)O)C(=O)NCC(=O)NCC(=O)N1CCC[C@H]1C(=O)N[C@@H](CO)C(=O)N[C@@H](CO)C(=O)NCC(=O)N[C@@H](C)C(=O)N1CCC[C@H]1C(=O)N1CCC[C@H]1C(=O)N1CCC[C@H]1C(=O)N[C@@H](CO)C(N)=O` [Example 193] (H-Y[αMeP]EGTFTSDYSILLDEK([AEEA-AEEA-γGlu-C20 diacid])AQQAFIEYLIEGGPSSGAPPPS-NH2), for which the EC50 in experiment [1] was determined as 0.336 nM; in experiment [2], 0.162 nM.
